The source of these data is patent EP0322251A2, “Benzothiopyran derivatives” (BEECHAM GROUP PLC, priority 1987, dated 1989).

The test system of this experiment is Spontaneously hypertensive rats. Put plainly: Blood pressure lowering activity, tail cuff method. Format: in vivo. Here is the method:
Blood Pressure Lowering Activity
Systolic blood pressures were recorded by a modification of the tail cuff method described by I.M. Claxton, M.G. Palfreyman, R.H. Poyser, R.L. Whiting, European Journal of Pharmacology, 37, 179 (1976). A W+W BP recorder, model 8005 was used to display pulses. Prior to all measurements rats were placed in a heated environment (33.5 ± 0.5°C) before transfer to a restraining cage. Each determination of blood pressure was the mean of at least 6 readings. Spontaneously hypertensive rats (ages 12-18 weeks) with systolic blood pressures >180 mmHg were considered hypertensive.

For the compound `Cc1ccc2c(c1)C(N1CCCC1=O)=CC(C)(C)S2(=O)=O` [Example 2, 4-(2-Oxopyrrolidin-1-yl)-2,2,6-trimethyl-2H-1-benzothiapyran-1,1-dioxide], the “% Change in Systolic Blood Pressure” value is recorded as -50 ± 2 (n=5) % (dose 10 mg/kg, 1 hour post dose); -34 ± 4 (n=5) % (dose 10 mg/kg, 2 hours post dose); -22 ± 3 (n=4) % (dose 10 mg/kg, 4 hours post dose); -15 ± 2 (n=4) % (dose 10 mg/kg, 6 hours post dose).
As for `Cc1ccc2c(c1)[C@@H](N1CCCCC1=O)[C@H](O)C(C)(C)S2(=O)=O` (relative stereo) [Example 3, Trans 3.4-dihydro-4-(2-oxopiperidin-1-yl)-2,2,6-trimethyl-2H-1-benzothiapyran-3-ol-1,1-dioxide], the “% Change in Systolic Blood Pressure” value is, setting by setting: (dose 30 mg/kg, 1 hour post dose) -25 (n=2) %; (dose 30 mg/kg, 2 hours post dose) -31 ± 7 (n=3) %; (dose 30 mg/kg, 4 hours post dose) -16 ± 2 (n=3) %; (dose 30 mg/kg, 6 hours post dose) -14 ± 3 (n=3) %.
Turning to `Cc1ccc2c(c1)C(N1CCCCC1=O)[C@H](O)C(C)(C)S2` (stereo partly drawn) [Example 1, Trans 3,4-Dihydro-4-(2-oxopiperidin-1-yl)-2,2,6-trimethyl-2H-1-benzothiapyran-3-ol], the “% Change in Systolic Blood Pressure” value (dose 1 mg/kg, 1 hour post dose) is -22 ± 5 (n=6) %; the “% Change in Systolic Blood Pressure” value (dose 1 mg/kg, 2 hours post dose) was -17 ± 6 (n=6) %; the “% Change in Systolic Blood Pressure” value (dose 1 mg/kg, 4 hours post dose) was -12 ± 11 (n=6) %.
